The record followed here is patent EP0677522A1, “8-METHOXYQUINOLONECARBOXYLIC ACID DERIVATIVE” (priority 1992, dated 1994).

Broadly, the MIC is the least concentration at which growth counts as inhibited. Lower therefore signals a more susceptible organism.

Assay [1] concerns E. faecium EFMY-207. The experiment in a line: In vitro antibacterial activity (MIC), Japan Society of Chemotherapy Standard. The settings on record: Enterococcus faecium, EFMY207; quinolone resistant bacteria; inoculated cells 10⁶ cells/ml. The assay is classed as cell-based. In outline:
(§1)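 Minimum inhibitory concentration, expressed in µg/ml, was determined by the Japanese standard procedure. Some strains required medium containing 10% horse blood, and the inoculum was 10⁶ cells/ml.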

For assay [2], the system named is S. pneumoniae Type-III. Described as above. The assay is classed as cell-based. The settings on record: Streptococcus pneumoniae; inoculated cells 10⁶ cells/ml; medium supplemented with 10% horse blood. The method in brief:
as §1

Assay [3] has as its system Serratia marcescens IFO 12648. Described as above. The assay is classed as cell-based. The settings on record: IFO12648, inoculated cells 10⁶ cells/ml. In outline: as §1
Assay [4] concerns Staphylococcus aureus FDA 209P. The assay is described as above. The settings on record: FDA209P, inoculated cells 10⁶ cells/ml. The assay is classed as cell-based. The method in brief: as §1
Assay [5] deals with P. mirabilis IFO 3849. The description is as above. The note with it: Proteus mirabilis, IFO3849; inoculated cells 10⁶ cells/ml. The assay is classed as cell-based. In outline:
as §1

The subject of assay [6] is E. coli KC-14. The experiment in a line: Protection of mice from experimental infection. The assay is classed as in vivo. The note with it: oral administration one hour after inoculation, survival ratio at 7 days. On the procedure:
(§2) Experimental infection was caused by intraperitoneal inoculation of respective bacteria to male mice. One hour after the inoculation, a test compound was orally administered to the mice. The therapeutic effect of each test compound was evaluated by reference to the 50% effective dose (ED₅₀) which was based on the survival ratio at 7 days after the administration according to the probit method [Proc. Soc. Exp. Med., Vol. 57, p 261-264 (1944)]. The minimum inhibitory concentration (MIC) of the infectious bacteria used was also determined. […]

Assay [7] deals with S. aureus MRSA Y-238. The experiment in a line: Protection of mice from experimental infection. The assay is classed as in vivo. The note with it: oral administration one hour after inoculation, survival ratio at 7 days. Here is the method:
as §2

Assay [8] concerns S. aureus Smith. As to the kind of experiment: Protection of mice from experimental infection. The assay is classed as in vivo. The note with it: male mice; intraperitoneal inoculation 2.8×10⁶ cells/mouse (123×LD₅₀); oral administration one hour after inoculation; survival ratio at 7 days, probit method. Here is the method: as §2

Converted amounts (≈) assume the structure as drawn.

Regarding `CC1COc2c(N3CCN(C)CC3)c(F)cc3c(=O)c(C(=O)O)cn1c23` (stereo not shown) [Comp. Ex. 2, 9-fluoro-2,3-dihydro-3-methyl-10-(4-methyl-1-piperazinyl)-7-oxo-7H-pyrido [1. 2. 3-de) [1.4] benzoxazine-6-carboxylic acid, reference compound], the MIC in assay [1] was determined as 100 µg/mL (≈ 277 µM); in assay [2] it was 0.78 µg/mL (≈ 2.16 µM); in assay [3], 0.2 µg/mL (≈ 0.553 µM); in assay [4] it was 0.2 µg/mL (≈ 0.553 µM); in assay [5], 0.39 µg/mL (≈ 1.08 µM). Besides, the “ED₅₀ (mg/mouse) (95% confidence limit)” value was 0.012(0.009-0.018) mg/mouse in assay [6] (Table 3-1: male mice, intraperitoneal inoculation 5.0×10⁶ cells/mouse (744×LD₅₀)); 0.012(0.009-0.018) mg/mouse in assay [6] (Table 3-2: male mice, intraperitoneal inoculation (744×LD₅₀)); > 16 mg/mouse in assay [7] (Table 3-1: male mice, intraperitoneal inoculation 7.5×10⁶ cells/mouse (185×LD₅₀)); > 16 mg/mouse in assay [7] (Table 3-2: male mice, intraperitoneal inoculation 7.5×10⁵ cells/mouse (185×LD₅₀)); 0.208(0.137-0.344) mg/mouse in assay [8].
